Experimental data from patent publication US20080299140A1, “Immunogenic Composition and Peptide Sequences for Prevention and Treatment of an Hsv Condition” (priority 2002, published 2008).
Where a chain is given by its changes, count along the chain named. Read-outs that look alike come from different tables or passages of the source.

Experiments:
[1] = target: T1, DR3=HLA-DR(α1*0101,α1*0301) (Homo sapiens, UniProt P01903+P01911, A100K/A102G/A103R/A169T/F55Y/I96L/K41T/L162R/M171V/P40S/Q125H/Q178H/Q39Y/R42S/S66N/T106N/T262R/W38E/Y61H); test: HLA-DR specific binding assay, DR3
T1 construct: endogenous in cells; host or cells: STEILIN (EBV homozygous B cell line)

[2] = target: T2, DR15=HLA-DR(α1*0101,α1*1501) (Homo sapiens, UniProt P01903+P01911); test: HLA-DR specific binding assay, DR15
T2 construct: endogenous in cells; host or cells: EBV homozygous human B cell line

[3] = target: T3, DP401=HLA-DP(α1*0101,α1*0401) (Homo sapiens, UniProt P04440+P20036); test: biochemical; format: binding
T3 sequence (P20036 32-260 limits assumed): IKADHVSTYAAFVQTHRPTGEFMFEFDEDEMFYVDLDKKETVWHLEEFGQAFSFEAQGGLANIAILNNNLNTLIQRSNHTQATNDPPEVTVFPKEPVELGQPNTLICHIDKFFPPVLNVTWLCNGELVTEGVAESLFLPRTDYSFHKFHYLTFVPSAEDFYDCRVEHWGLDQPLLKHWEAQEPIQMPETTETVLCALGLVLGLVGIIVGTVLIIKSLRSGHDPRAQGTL
T3 sequence (P04440 30-258): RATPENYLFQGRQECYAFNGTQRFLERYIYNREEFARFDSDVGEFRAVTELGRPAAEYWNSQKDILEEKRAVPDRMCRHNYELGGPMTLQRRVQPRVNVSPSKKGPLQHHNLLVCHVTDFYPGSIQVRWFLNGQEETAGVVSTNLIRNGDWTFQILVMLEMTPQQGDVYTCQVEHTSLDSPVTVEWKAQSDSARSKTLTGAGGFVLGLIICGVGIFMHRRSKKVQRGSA

[4] = target: T4, DRB3=HLA-DR(α1*0101,α3*0101) (Homo sapiens, UniProt P01903+P79483); test: HLA-DR specific binding assay, DRB3 (DR52)
T4 construct: endogenous in cells; host or cells: STEILIN or 0206AD (both typed DRB3*0101)

[5] = target: T5, DRB5=HLA-DR(α1*0101,α5*0101) (Homo sapiens, UniProt P01903+Q30154); test: biochemical; format: binding; details: Table V; […]; read-out: IC50 DRB5
T5 construct: endogenous in cells; host or cells: EBV homozygous human B cell line

[6] = target: T6, DR11=HLA-DR(α1*0101,α1*1101) (Homo sapiens, UniProt P01903+P01911, A100R/A169T/A87E/I96F/K41T/L162R/M171V/P40S/Q125H/Q178H/Q39Y/Q99D/R42S/S66Y/T262R/V115G/W38E); test: biochemical; format: binding
T6 construct: endogenous in cells; host or cells: SWEIG (EBV homozygous B cell line)

[7] = target: T7, DR7=HLA-DR(α1*0101,α1*0701) (Homo sapiens, UniProt P01903+P01911, A100R/A102G/A103Q/D57E/D86V/E43K/F76Y/K127E/L162R/M171V/P40G/Q125H/Q99D/R33Q/R42Y/R54Q/S133A/S66F/T210M/V115G/Y107V/Y59L/Y89S); test: HLA-DR specific binding assay, DR7
T7 construct: endogenous in cells; host or cells: EBV homozygous human B cell line

[8] = target: T8, DR4=HLA-DR(α1*0101,α1*0401) (Homo sapiens, UniProt P01903+P01911, A100K/A169T/F76Y/I96L/K127E/L162R/M171V/N62H/P40V/Q125Y/R42H/S133A/S149N/S66Y/V115G/V209L/W38E); test: biochemical; format: binding
T8 construct: endogenous in cells; host or cells: BOLETH (EBV homozygous B cell line)

[9] = target: T9, DP402 DP (α1*0101, α1*0402) (Homo sapiens, UniProt P04440+P20036, A65V/A84D/A85E/L207M); test: biochemical; format: binding
T9 sequence (P20036 29-260): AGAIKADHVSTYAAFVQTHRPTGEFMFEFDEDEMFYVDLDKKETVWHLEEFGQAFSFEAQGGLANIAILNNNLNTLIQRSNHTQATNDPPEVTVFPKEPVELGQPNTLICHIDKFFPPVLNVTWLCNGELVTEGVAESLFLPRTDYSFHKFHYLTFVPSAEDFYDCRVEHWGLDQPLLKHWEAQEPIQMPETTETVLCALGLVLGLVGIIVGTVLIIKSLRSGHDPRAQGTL
T9 sequence (P04440 30-258 A65V/A84D/A85E): T3 sequence (P04440 30-258) with A36V, A55D, A56E

[10] = target: T10, DR1=HLA-DR(α1*0101,α1*0101) (Homo sapiens, UniProt P01903+P01911, A100R/D57E/F55L/F60I/F76Y/I96L/L162R/M171V/P40L/Q125E/R42F/V115G/Y59C); test: biochemical; format: binding; details: […]
T10 construct: endogenous in cells; host or cells: EBV homozygous human B cell line

[11] = target: T11, DRB4=HLA-DR(α1*0101,α4*0101) (Homo sapiens, UniProt P01903+P13762, G164S); test: HLA-DR specific binding assay, DRB4 (DR53)
T11 construct: endogenous in cells

[12] = target: T12, DR13=HLA-DR(α1*0101,α1*1301) (Homo sapiens, UniProt P01903+P01911, A100E/A169T/K41T/L162R/M171V/P40S/Q125H/Q178H/Q39Y/Q99D/R42S/S66N/T262R/W38E/Y61H); test: HLA-DR specific binding assay, DR13
T12 construct: endogenous in cells; host or cells: 0206AD (EBV homozygous B cell line)

[13] = Table V, […], read-out: IC50 DR11
[14] = Table V, […], read-out: IC50 DR4

T5 sequence (Q30154 30-266, other chains not shown): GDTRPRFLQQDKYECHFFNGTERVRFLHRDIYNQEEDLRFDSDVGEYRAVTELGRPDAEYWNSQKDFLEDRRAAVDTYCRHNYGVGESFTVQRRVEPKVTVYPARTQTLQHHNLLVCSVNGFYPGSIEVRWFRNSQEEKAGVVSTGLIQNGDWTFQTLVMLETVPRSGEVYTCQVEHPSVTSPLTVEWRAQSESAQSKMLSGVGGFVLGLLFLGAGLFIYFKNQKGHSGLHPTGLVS
T4 sequence (P79483 30-266, other chains not shown): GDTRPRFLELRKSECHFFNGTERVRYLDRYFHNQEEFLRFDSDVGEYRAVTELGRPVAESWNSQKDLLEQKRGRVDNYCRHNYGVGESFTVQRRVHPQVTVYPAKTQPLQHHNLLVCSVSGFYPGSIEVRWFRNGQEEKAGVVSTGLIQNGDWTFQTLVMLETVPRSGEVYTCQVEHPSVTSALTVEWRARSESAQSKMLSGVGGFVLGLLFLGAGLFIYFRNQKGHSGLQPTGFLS

SMILES	IC50 ([1]; IC50 DR3, Table V, […])	IC50 [2]	IC50 ([3]; Table V, […])	IC50 ([4]; IC50 DRB3, Table V, […])	IC50 [5]	IC50 [6, 13]	IC50 [7]	IC50 [8, 14]	IC50 ([9]; Class II MHC allele DP402)	IC50 ([9]; Table V, […])	IC50 ([10]; Table V, read-out: IC50 DR1)	IC50 [11]	IC50 [12]	IC50 ([1]; IC50, DR3, Class II MHC allele DR3)	IC50 ([3]; Class II MHC allele DP401)	IC50 ([10]; Class II MHC allele DR1, read-out: IC50, DR1)	IC50 ([6]; Class II MHC allele DR11, read-out: IC50, DR11)	IC50 ([4]; IC50, DRD3, Class II MHC allele DRD3 (so in the source))	IC50 ([8]; IC50 DR4)
CSCC[C@H](NC(=O)[C@H](CC(=O)O)NC(=O)[C@@H](NC(=O)[C@@H](NC(=O)[C@H](CCCCN)NC(=O)[C@H](C)NC(=O)[C@H](CO)NC(=O)[C@H](CC(C)C)NC(=O)[C@H](CC(C)C)NC(=O)[C@H](C)NC(=O)[C@H](CO)NC(=O)[C@@H](NC(=O)CN)[C@@H](C)O)C(C)C)[C@@H](C)O)C(=O)N[C@H](C(=O)N[C@@H](CCSC)C(=O)N[C@@H](CCCNC(=N)N)C(=O)N[C@@H](CCCCN)C(=O)N[C@@H](CCCNC(=N)N)C(=O)N[C@@H](CCCNC(=N)N)C(=O)N[C@@H](CC(N)=O)C(=O)N[C@H](C(=O)N[C@@H](CC(N)=O)C(=O)N[C@@H](Cc1ccc(O)cc1)C(=O)N[C@H](C(=O)N[C@@H](CCC(N)=O)C(=O)N[C@H](C(=O)N1CCC[C@H]1C(=O)N[C@@H](CC(N)=O)C(=O)N[C@@H](CCCCN)C(=O)N[C@@H](CC(=O)O)C(=O)NCC(=O)N[C@@H](CC(=O)O)C(=O)N[C@@H](C)C(=O)N[C@@H](CC(=O)O)C(=O)O)C(C)C)[C@@H](C)O)[C@@H](C)O)C(C)C [HSV 9]	11.4 µM	2.43 µM	8 µM	58 µM	0.559 µM	0.424 µM	0.229 µM	4 µM	4 µM	4 µM	0.493 µM	16 µM	0.362 µM						
CSCC[C@H](NC(=O)[C@H](CCCCN)NC(=O)[C@H](CC(C)C)NC(=O)[C@H](CO)NC(=O)[C@H](C)NC(=O)[C@H](CC(=O)O)NC(=O)[C@@H](NC(=O)[C@H](CC(C)C)NC(=O)[C@H](C)NC(=O)[C@H](Cc1ccc(O)cc1)NC(=O)[C@H](CCCCN)NC(=O)[C@@H](N)CO)C(C)C)C(=O)N[C@@H](C)C(=O)N[C@@H](CC(=O)O)C(=O)N1CCC[C@H]1C(=O)N[C@@H](CC(N)=O)C(=O)N[C@@H](CCCNC(=N)N)C(=O)N[C@@H](Cc1ccccc1)C(=O)N[C@@H](CCCNC(=N)N)C(=O)NCC(=O)N[C@@H](CCCCN)C(=O)N[C@@H](CC(=O)O)C(=O)N[C@@H](CC(C)C)C(=O)N1CCC[C@H]1C(=O)N[C@H](C(=O)N[C@@H](CC(C)C)C(=O)N[C@@H](CC(=O)O)C(=O)N[C@@H](CCC(N)=O)C(=O)N[C@@H](CC(C)C)C(=O)O)C(C)C [HSV 30]	0.078 µM	11 µM	17.9 µM	0.535 µM	0.007 µM	0.648 µM	0.374 µM	0.058 µM		3.8 µM		> 100 µM	> 100 µM	0.079 µM	17.7 µM	0.058 µM			
CC[C@H](C)[C@H](NC(=O)[C@H](CCC(N)=O)NC(=O)[C@@H]1CCCN1C(=O)[C@H](C)N)C(=O)N[C@H](C(=O)N[C@@H](CCCNC(=N)N)C(=O)NCC(=O)N[C@@H](C)C(=O)N[C@@H](CO)C(=O)N[C@@H](CCC(=O)O)C(=O)N[C@@H](CC(=O)O)C(=O)N[C@H](C(=O)N[C@@H](CCCNC(=N)N)C(=O)N[C@@H](CCCCN)C(=O)N[C@@H](CCC(N)=O)C(=O)N1CCC[C@H]1C(=O)N[C@@H](Cc1ccc(O)cc1)C(=O)N[C@@H](CC(N)=O)C(=O)N[C@@H](CC(C)C)C(=O)N[C@H](C(=O)N[C@H](C(=O)N[C@@H](C)C(=O)N[C@@H](Cc1c[nH]c2ccccc12)C(=O)N[C@@H](Cc1ccccc1)C(=O)N[C@@H](CCCNC(=N)N)C(=O)N[C@@H](CCSC)C(=O)NCC(=O)NCC(=O)O)[C@@H](C)CC)[C@@H](C)O)C(C)C)C(C)C [HSV 32]	2.35 µM		1.45 µM	> 100 µM	0.001 µM	0.3 µM	0.004 µM			0.381 µM							0.3 µM		
CC[C@H](C)[C@H](NC(=O)[C@H](Cc1c[nH]cn1)NC(=O)[C@H](Cc1ccc(O)cc1)NC(=O)[C@@H](NC(=O)[C@H](CCCNC(=N)N)NC(=O)[C@H](CCCNC(=N)N)NC(=O)[C@@H](NC(=O)CNC(=O)[C@@H]1CCCN1C(=O)[C@@H]1CCCN1C(=O)[C@H](CC(=O)O)NC(=O)[C@@H](NC(=O)[C@H](CC(C)C)NC(=O)[C@H](CCC(N)=O)NC(=O)[C@H](CC(=O)O)NC(=O)[C@H](CC(C)C)NC(=O)[C@@H](NC(=O)[C@@H]1CCCN1C(=O)[C@H](CC(C)C)NC(=O)[C@@H](N)CC(=O)O)C(C)C)[C@@H](C)O)C(C)C)C(C)C)C(=O)N[C@@H](CCC(N)=O)C(=O)N[C@@H](C)C(=O)NCC(=O)N[C@@H](CC(C)C)C(=O)N1CCC[C@H]1C(=O)N[C@@H](CC(=O)O)C(=O)N1CCC[C@H]1C(=O)N[C@@H](Cc1ccccc1)C(=O)N[C@@H](CCC(N)=O)C(=O)N1CCC[C@H]1C(=O)N1CCC[C@H]1C(=O)N[C@@H](CO)C(=O)O [HSV 31]	2.49 µM	0.787 µM	62 µM	5.98 µM	0.058 µM		0.224 µM		49 µM	47 µM	0.003 µM	0.397 µM	> 100 µM					6.98 µM	0.063 µM
